The text below walks through data of ChEMBL document CHEMBL4483862, “Open-source discovery of chemical leads for next-generation chemoprotective antimalarials” (2018).

Structures are written as SMILES.

A word on the IC50: it is the point on the concentration scale where inhibition reaches its midpoint. By IC90 is commonly meant the concentration at which the effect reaches the 90% level.

The test system of the test is Plasmodium berghei. Nature of the test: Luciferase/luciferin-expressing antifolate-resistant parasites were used to infect a culture of HepG2 cells that were pre-incubated with compounds. Infected hepatocytes emit light due to the luciferase reaction. Assay results are presented as the percent inhibition of light emission compared to control. […]. Type of test: functional. Particulars: sporozoite; for IC90: read-out: LUCIFERASE INFECTION ASSAY - IC90.

As for `CCOc1ccc(-n2c(-c3ccc(Cl)cc3)c[n+]3c2SCC3)cc1`, the IC90 came out at 8.41 µM. Also, the 50% inhibitory concentration (IC50) (HEPG2TOX_HILL_SLOPE 17.5, HEPG2TOX_R_SQUARED 0.639, PBLUC_HILL_SLOPE 3.46, PBLUC_R_SQUARED 0.768, read-out: LUCIFERASE INFECTION ASSAY - IC50) was 4.45 µM.

Regarding `O=C(Nc1ccc(SC(F)(F)F)cc1)Nc1ccc(-n2ccc(C(F)(F)F)n2)cc1`, the IC90 was found to be 2.69 µM. In addition, where the note is “HEPG2TOX_HILL_SLOPE 17.7, HEPG2TOX_R_SQUARED 0.761, PBLUC_HILL_SLOPE 20.9, PBLUC_R_SQUARED 0.513, read-out: LUCIFERASE INFECTION ASSAY - IC50”, the IC50 worked out at 2.42 µM.

Consider `Cn1nc(-c2ccc(C(=O)Nc3ccccc3)s2)cc1C(F)(F)F`, for which the IC90 was 8.54 µM. Besides, the half-maximal inhibitory concentration (IC50) (HEPG2TOX_HILL_SLOPE 17.1, HEPG2TOX_R_SQUARED 0.873, PBLUC_HILL_SLOPE 3.01, PBLUC_R_SQUARED 0.475, read-out: LUCIFERASE INFECTION ASSAY - IC50) was found to be 4.12 µM.

As for `CCOc1cc(/C=C2\S/C(=N\C3CCCC3)NC2=O)cc(Br)c1OCC`, the IC90 stood at 3.94 µM. For the same compound, the concentration for half-maximal inhibition (IC50) (HEPG2TOX_HILL_SLOPE 17, HEPG2TOX_R_SQUARED 0.811, PBLUC_HILL_SLOPE 15.3, PBLUC_R_SQUARED 0.445, read-out: LUCIFERASE INFECTION ASSAY - IC50) turned out to be 3.41 µM.

Turning to `Cc1ccnc(NC(=O)Cc2cnn(-c3ccccc3)c2)c1`, the IC90 is 9.95 µM. In addition, for the setting “HEPG2TOX_HILL_SLOPE 17.5, HEPG2TOX_R_SQUARED 0.943, PBLUC_HILL_SLOPE 16.3, PBLUC_R_SQUARED 0.0531, read-out: LUCIFERASE INFECTION ASSAY - IC50”, the IC50 was 8.7 µM.

In the case of `CCOC(=O)N/N=C(\CC)c1ccc(-c2ccccc2F)cc1`, the IC90 was more than 10.5 µM. For the setting “HEPG2TOX_HILL_SLOPE 16.9, HEPG2TOX_R_SQUARED 0.877, PBLUC_HILL_SLOPE 3.23, PBLUC_R_SQUARED 0.461, read-out: LUCIFERASE INFECTION ASSAY - IC50”, the IC50 was determined as 6.06 µM.

`CC(=O)c1c(C)[nH]c(C(=O)Nc2ccc(Oc3ccccc3Cl)cc2)c1C`: the IC90 amounted to 7.08 µM. In addition, where the note is “HEPG2TOX_HILL_SLOPE 17, HEPG2TOX_R_SQUARED 0.739, PBLUC_HILL_SLOPE 1.26, 0.690, PBLUC_R_SQUARED 0.562, 0.913, read-out: LUCIFERASE INFECTION ASSAY - IC50”, the IC50 was found to be 0.831 µM.

On to `COC(=O)c1sccc1Oc1ccc(C(F)(F)F)cc1NS(=O)(=O)c1cc(C(F)(F)F)cc(C(F)(F)F)c1`, for which the IC90 came out at 3.04 µM. Under “HEPG2TOX_HILL_SLOPE 17.5, HEPG2TOX_R_SQUARED 0.823, PBLUC_HILL_SLOPE 4.85, PBLUC_R_SQUARED 0.307, read-out: LUCIFERASE INFECTION ASSAY - IC50”, the IC50 worked out at 1.93 µM.

Consider `CN1CCN(c2ccc(-c3cn4c(-c5ccc6ncccc6c5)cnc4cn3)cc2)CC1`, for which the IC90 amounted to 7.74 µM. For the same compound, the IC50 (HEPG2TOX_HILL_SLOPE 17, HEPG2TOX_R_SQUARED 0.823, PBLUC_HILL_SLOPE 14.3, PBLUC_R_SQUARED 0.731, read-out: LUCIFERASE INFECTION ASSAY - IC50) amounted to 6.63 µM.

Regarding `C=CCn1c(COc2ccc(CC)cc2)nnc1SCC(=O)/C(C#N)=C(\C)N`, the IC90 is more than 10 µM. For the same compound, the IC50 (HEPG2TOX_HILL_SLOPE 17.4, HEPG2TOX_R_SQUARED 0.832, PBLUC_HILL_SLOPE 1.76, PBLUC_R_SQUARED 0.574, read-out: LUCIFERASE INFECTION ASSAY - IC50) is 6.67 µM.

Regarding `CN1/C(=C\C=N\NC(=O)c2ccccc2NS(=O)(=O)c2cccs2)C(C)(C)c2ccccc21`, the IC90 was 1.2 µM. Further, the IC50 (HEPG2TOX_HILL_SLOPE 16.9, HEPG2TOX_R_SQUARED 0.641, PBLUC_HILL_SLOPE 12.4, PBLUC_R_SQUARED 0.659, read-out: LUCIFERASE INFECTION ASSAY - IC50) was found to be 1.01 µM.

Take `Cc1ccc(NC(=O)c2cccc(-c3ccc(O)cc3)c2)cc1Cl`: the IC90 amounted to 4.26 µM. For the same compound, the IC50 (HEPG2TOX_HILL_SLOPE 17.8, HEPG2TOX_R_SQUARED 0.895, PBLUC_HILL_SLOPE 28.1, PBLUC_R_SQUARED 0.516, read-out: LUCIFERASE INFECTION ASSAY - IC50) was 3.94 µM.

As to `COc1cccc(Nc2nc(-c3ccc(CCC(C)NC(C)=O)cc3)cs2)c1` (stereo unspecified), the IC90 turned out to be 8.54 µM. For the same compound, the IC50 (HEPG2TOX_HILL_SLOPE 17.1, HEPG2TOX_R_SQUARED 0.93, PBLUC_HILL_SLOPE 0.895, PBLUC_R_SQUARED 0.745, read-out: LUCIFERASE INFECTION ASSAY - IC50) was determined as 0.734 µM.

For `COC(=O)c1c(NC(=O)c2cccnc2)c2cc(NCC3CCCCC3)cnc2n1Cc1ccccc1`, the IC90 was more than 6.63 µM. The IC50 (HEPG2TOX_HILL_SLOPE 17.8, HEPG2TOX_R_SQUARED 0.594, PBLUC_HILL_SLOPE 8.22, PBLUC_R_SQUARED 0.247, read-out: LUCIFERASE INFECTION ASSAY - IC50) came to 5.43 µM.

With `COc1cncc(-c2cnn3ccc(Nc4ccc(Oc5ccccc5)cc4)nc23)c1`, the IC90 is more than 8.06 µM. Moreover, for the setting “HEPG2TOX_HILL_SLOPE 17.9, HEPG2TOX_R_SQUARED 0.509, PBLUC_HILL_SLOPE 0.505, PBLUC_R_SQUARED 0.666, read-out: LUCIFERASE INFECTION ASSAY - IC50”, the IC50 was more than 8.06 µM.

For `CC(C)C(C)CCC(C)C1CC=C2C3CCC4CC(O)CCC4(C)C3CCC21C` (stereo unspecified), the IC90 was 0.344 µM. Moreover, the half-maximal inhibitory concentration (IC50) (HEPG2TOX_HILL_SLOPE 17.3, HEPG2TOX_R_SQUARED 0.943, PBLUC_HILL_SLOPE 11.3, PBLUC_R_SQUARED 0.846, read-out: LUCIFERASE INFECTION ASSAY - IC50) was determined as 0.284 µM.

`O=C(/C(Br)=C/c1ccc([N+](=O)[O-])cc1)c1ccccc1`: the IC90 is more than 10 µM. The IC50 (HEPG2TOX_HILL_SLOPE 17, HEPG2TOX_R_SQUARED 0.837, PBLUC_HILL_SLOPE 13.5, PBLUC_R_SQUARED 0.0643, read-out: LUCIFERASE INFECTION ASSAY - IC50) is 9.16 µM.

Turning to `Cc1cc(C)c(NC(=O)c2cc(C)on2)c(C)c1`, the 90% effect concentration (IC90) is more than 10 µM. For the same compound, the IC50 (HEPG2TOX_HILL_SLOPE 17.1, HEPG2TOX_R_SQUARED 0.826, PBLUC_HILL_SLOPE 16.1, PBLUC_R_SQUARED 0.022, read-out: LUCIFERASE INFECTION ASSAY - IC50) was determined as 9.8 µM.

Turning to `Cc1cc(CN2CCc3ccccc3C2)c(C)cc1O`, the IC90 was more than 10 µM. In addition, the 50% inhibitory concentration (IC50) (HEPG2TOX_HILL_SLOPE 17.5, HEPG2TOX_R_SQUARED 0.797, read-out: LUCIFERASE INFECTION ASSAY - IC50) is more than 10 µM.

With `Cc1cc(NC(=O)N2CCN(Cc3ccc(-c4ccccc4Cl)s3)CC2)no1`, the 90% effect concentration (IC90) is more than 10 µM. For the same compound, where the note is “HEPG2TOX_HILL_SLOPE 17.1, HEPG2TOX_R_SQUARED 0.65, PBLUC_HILL_SLOPE 0.759, PBLUC_R_SQUARED 0.724, read-out: LUCIFERASE INFECTION ASSAY - IC50”, the IC50 is 1.19 µM.

With `CN(C)CCCN1C(=O)N(CCc2ccccc2)C2(CCN(Cc3cn(C)c4ccccc34)CC2)C1=O`, the IC90 is 6.2 µM. Besides, for the setting “HEPG2TOX_HILL_SLOPE 17.2, HEPG2TOX_R_SQUARED 0.602, PBLUC_HILL_SLOPE 5.41, PBLUC_R_SQUARED 0.643, read-out: LUCIFERASE INFECTION ASSAY - IC50”, the IC50 was found to be 4.13 µM.

Regarding `Cn1c(NCc2ccccc2)nc2cnc(Nc3cccc(Oc4ccccc4)c3)cc21`, the 90% effect concentration (IC90) was found to be 3.9 µM. Moreover, the IC50 (HEPG2TOX_HILL_SLOPE 16.8, HEPG2TOX_R_SQUARED 0.905, PBLUC_HILL_SLOPE 16.2, PBLUC_R_SQUARED 0.526, read-out: LUCIFERASE INFECTION ASSAY - IC50) stood at 3.4 µM.

For the compound `CCCNC(=O)c1c(NC(=O)c2ccc(F)cc2)nc2ccccn12`, the IC90 was 5.82 µM. In addition, where the note is “HEPG2TOX_HILL_SLOPE 16.9, HEPG2TOX_R_SQUARED 0.391, PBLUC_HILL_SLOPE 4.88, PBLUC_R_SQUARED 0.525, read-out: LUCIFERASE INFECTION ASSAY - IC50”, the IC50 was found to be 3.71 µM.

Regarding `Cn1c(-c2ccccc2)c(/C=N/Nc2ccnc3cc(Cl)ccc23)c2ccccc21`, the IC90 amounted to 6.47 µM. Moreover, the IC50 (HEPG2TOX_HILL_SLOPE 17.0, 5.95, HEPG2TOX_R_SQUARED 0.687, 0.986, PBLUC_HILL_SLOPE 1.29, PBLUC_R_SQUARED 0.592, read-out: LUCIFERASE INFECTION ASSAY - IC50) was determined as 1.17 µM.

With `Cc1nc(C2CC2)nc(SC(C)C)c1C#N`, the IC90 is more than 10 µM. For the same compound, the IC50 (HEPG2TOX_HILL_SLOPE 17, HEPG2TOX_R_SQUARED 0.522, PBLUC_HILL_SLOPE 1.64, PBLUC_R_SQUARED 0.538, read-out: LUCIFERASE INFECTION ASSAY - IC50) is 5.26 µM.

On to `CCN(CC)c1ccc(Nc2nc(-c3ccncc3)cs2)cc1`, for which the concentration for an effect of 90% (IC90) is more than 8.14 µM. For the same compound, the half-inhibitory concentration (IC50) (HEPG2TOX_HILL_SLOPE 17.3, HEPG2TOX_R_SQUARED 0.807, PBLUC_HILL_SLOPE 2.78, PBLUC_R_SQUARED 0.42, read-out: LUCIFERASE INFECTION ASSAY - IC50) worked out at 4.75 µM.

`Fc1ccc(-c2cc3[nH]c(NCc4ccccc4)nc3cn2)cc1Cl`: the IC90 was 5.42 µM. Where the note is “HEPG2TOX_HILL_SLOPE 17.8, HEPG2TOX_R_SQUARED 0.722, PBLUC_HILL_SLOPE 354, PBLUC_R_SQUARED 0.159, read-out: LUCIFERASE INFECTION ASSAY - IC50”, the IC50 was 5.38 µM.

For the compound `O=C1C(=O)N(Cc2ccco2)C(=O)N1Cc1ccc(-c2ccccc2)cc1`, the IC90 is more than 10 µM. Moreover, the IC50 (HEPG2TOX_HILL_SLOPE 17.7, HEPG2TOX_R_SQUARED 0.836, PBLUC_HILL_SLOPE 2.05, PBLUC_R_SQUARED 0.957, read-out: LUCIFERASE INFECTION ASSAY - IC50) is 4.16 µM.
